From the NIST ThermoML archive (doi:10.1021/je501033z)
Values joined by “and” are separate entries in the source; they are usually repeats but may differ in a detail not shown here. Equal values may be shown once.

Conditions: Liquid, Closed cell (Static) method

CO [methanol]
Conditions | vapor or sublimation pressure [kPa]
274.15 K | 4.252
278.15 K | 5.501
283.15 K | 7.411
293.15 K | 13
303.15 K | 21.86
313.15 K | 35.43
323.15 K | 55.54
333.15 K | 84.93
343.15 K | 125.74
353.15 K | 181.56
363.15 K | 256.27
373.15 K | 354.35
383.15 K | 480.82
393.15 K | 641.27
403.15 K | 841.83
413.15 K | 1089.2

O [water]
Conditions | vapor or sublimation pressure
279.48 K | 0.953 kPa
286.16 K | 1.508 kPa
291.39 K | 2.094 kPa
293.14 K | 2.337 kPa
296.31 K | 2.839 kPa
296.32 K | 2.834 kPa
298.81 K | 3.288 kPa
301.37 K | 3.827 kPa
303.57 K | 4.36 kPa
307.73 K | 5.507 kPa
308.26 K | 5.666 kPa
312.87 K | 7.275 kPa
313.07 K | 7.345 kPa
314.62 K | 7.977 kPa
318.13 K | 9.585 kPa and 9.578 kPa
322.99 K | 12.26 kPa
323.1 K | 12.32 kPa
323.17 K | 12.36 kPa
328.14 K | 15.75 kPa
328.88 K | 16.31 kPa
